In the experiment the test system is P. gingivalis 33277 mutants. The experiment is described as follows: polymixin B sensitivity of P. gingivalis strains. It is filed as cell-based, Porphyromonas gingivalis. The note with it: J5-c5 transposon mutant; similar to the wild-type bacterium.

One substance from patent US20210024975A1, “METHODS FOR IDENTIFYING INHIBITORS OF LIPID A DEACYLASE AND […] RELATED TO SAME” (UNIVERSITY OF WASHINGTON, priority 2019, published 2021) can be followed below.

For polymixin B, the “polymixin B sensitivity of J5-c5 mutants” value was “resistance”.
